Assay results published in patent US20210355107A1, “MULTI-SUBSTITUTED PYRIDONE DERIVATIVES AND MEDICAL USE THEREOF” (Beijing Yuezhikangtai Biomedicines Co., Ltd., priority 2018, published 2021).

Biological target: T1, Ba/F3 Axl cells (Homo sapiens, UniProt P30530)
T1 sequence (P30530 1-894): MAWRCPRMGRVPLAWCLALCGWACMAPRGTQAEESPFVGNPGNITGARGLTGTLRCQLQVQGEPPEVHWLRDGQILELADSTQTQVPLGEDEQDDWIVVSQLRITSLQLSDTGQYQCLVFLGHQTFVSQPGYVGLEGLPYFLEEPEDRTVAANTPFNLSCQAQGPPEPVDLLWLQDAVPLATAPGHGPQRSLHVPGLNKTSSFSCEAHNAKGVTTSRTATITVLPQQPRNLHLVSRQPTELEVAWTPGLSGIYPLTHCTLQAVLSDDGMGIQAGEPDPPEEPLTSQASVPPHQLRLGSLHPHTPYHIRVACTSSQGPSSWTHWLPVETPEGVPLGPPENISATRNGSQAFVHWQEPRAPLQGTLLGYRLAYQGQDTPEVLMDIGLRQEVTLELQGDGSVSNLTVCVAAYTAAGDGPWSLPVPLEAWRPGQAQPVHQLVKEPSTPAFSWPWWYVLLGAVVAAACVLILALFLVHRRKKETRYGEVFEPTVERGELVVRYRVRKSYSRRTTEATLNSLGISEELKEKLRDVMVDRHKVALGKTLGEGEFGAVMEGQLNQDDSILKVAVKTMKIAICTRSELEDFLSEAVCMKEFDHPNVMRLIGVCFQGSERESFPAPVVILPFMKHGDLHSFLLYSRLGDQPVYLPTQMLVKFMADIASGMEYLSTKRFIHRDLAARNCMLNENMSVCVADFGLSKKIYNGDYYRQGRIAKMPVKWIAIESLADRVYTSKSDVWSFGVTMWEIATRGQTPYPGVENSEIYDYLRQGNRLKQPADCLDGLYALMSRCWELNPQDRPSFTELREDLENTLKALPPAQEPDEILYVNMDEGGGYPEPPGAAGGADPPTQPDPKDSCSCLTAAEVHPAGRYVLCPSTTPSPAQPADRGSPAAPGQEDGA
Assay: Ba/F3 Axl cell proliferation, CellTiter-Glo Luminescent Cell Viability Assay
Format: cell-based
Settings: read-out: IC50 (nM) against Ba/F3 Axl cells, 100 ng/mL rhGas6, 72 h incubation
Method: Test method: the inhibitory activity of the compounds against Ba/F3 Axl cell proliferation was evaluated using CellTiter-Glo® Luminescent Cell Viability Assay Kit (Promega).
Test procedures: when thawing Ba/F3 Axl cells, the cell cryopreservation tube was shaken rapidly in a water bath at 37° C. to thaw the cells in 1 min. The cell suspension after thawing was mixed with RPMI1640 culture medium containing 10% FBS and centrifuged for 5 min at 1000 rpm, and the supernatant was discarded. The cell pellet was suspended in 5 mL of complete culture medium. […] Cell passage was performed at a cell density of 2×10^6 viable cells/mL. When the cells were passaged, the original cell suspension was directly made uniform by pipetting. 1/10 (namely 0.5 mL) of the cell suspension was kept, added with 4.5 mL of new complete culture medium and then made uniform by pipetting. The cell culture flask was then placed in a cell incubator for further culturing. Cell plating was performed when the cell confluence reached 2×10^6 viable cells/mL again. With reference to the method for cell passage, 1/10 (namely 0.5 mL) of the cell suspension was kept for further culturing when the cells were plated, and the remaining cell suspension was placed in a 15 mL centrifuge tube. The supernatant was discarded after centrifugation, and 5 mL of complete culture medium was used to resuspend the cells. […] A control group that contains no cell or compound but only complete culture medium and a control group that contains no compound but cells were set. The cell plates were incubated overnight in a cell incubator. […] The cell plates were then incubated in the cell incubator for 72 h. […] The cell plate was left to stand at room temperature for 20 min to stabilize luminescence signals, and the luminescence value of each well was scanned by a Spectramax M3 multi-functional microplate reader (Molecular Devices) at full wavelength.
Test samples: example compounds of the present invention and bemcentinib (positive control compound).
Data analysis: cell viability was calculated for compounds at various concentrations using the following formula:
Cell viability(%)=(Lumtest compound−Lumculture solution control)/(Lumcell control−Lumculture solution control)×100%,
where Lum refers to the luminescence value of each well of the test compound plate read by the multi-functional microplate reader.
The data were analyzed using GraphPad Prism 7.0 software, fitted with nonlinear S-curve regression to give dose-response curves, and IC50 values were calculated therefrom.

`Nc1nc(Nc2ccc3c(c2)CC[C@@H](N2CCCC2)CC3)nn1-c1cc2c(nn1)-c1ccccc1CCC2` [Bemcentinib, bemcentinib, reference compound] showed a GI50 of 26.9 nM.
